# Target: hROMK (human Kir1.1) (Homo sapiens (Human), UniProt P48048)
# Test: cell-based
# Settings: CHO T-Rex hROMK stable cell line; thallium flux; 10-point concentration response curve; read-out: Human ROMK Th Flux IC50
# Experimental: Solutions and reagents: Thallium flux assay was performed using FluxOR kit (F10017, Life Technologies). Loading buffer, assay buffer and stimulus buffer were prepared using kit components. HBSS (Hank's balanced salt solution, Cat#14025-092) was purchased separately from Life Technologies.
# To prepare 10 ml of loading buffer: 10 μl of FluxOR dye (reconstituted in DMSO) was first added to 100 μl of powerload concentrate and this mix along with 100 μl of Probenicid (100×) was then added to 9.79 ml of HBSS. Assay buffer (10 ml) was prepared by addition of 2 ml of FluxOR chloride free buffer (5×), 100 μl of Probenicid (100×), and 0.2 ml of Ouabain (13.77 mM) to 7.7 ml of deionized water. Stimulus buffer was composed of 15 mM Tl2SO4, 0.75 mM K2SO4 in FluxOR chloride free buffer (diluted to 1× using deionized water). The final concentration of Tl2SO4 and K2SO4 in the assay plate was 3 mM and 0.15 mM, respectively.
# Plating and induction of cells: The CHO T-Rex hROMK (human Kir1.1) stable cell line was maintained in Ham's F12 media supplemented with 10% FBS, 1% Penicillin-Streptomycin, 500 μg/ml Zeocin and 10 μg/ml Blasticidin at 37° C. in a 5% CO2 incubator. One day before the experiment, the cells were dissociated by incubation with Versene solution (15040-066, Life Technologies) for 10 minutes at 37° C. followed by addition of growth media. The cell suspension was centrifuged at 1200 rpm for 5 min. After discarding the supernatant, the cells were resuspended in fresh growth media and cell concentration was determined using a hemocytometer. Next, 0.5 μg/ml of Doxycycline was added to the cell suspension to induce hROMK channel expression and 50 μl (10,000 cells/well) of cell suspension was added to each well of a poly-D lysine coated 384 well black, optically clear bottom plate (6007718, Perkin Elmer). The assay plate was kept at 37° C. in a 5% CO2 incubator.
# Assay protocol: On the day of experiment, media was removed and loading buffer was added (30 μl/well) to the assay plate. The cells were incubated in the loading buffer for 30 minutes at 37° C. The loading buffer was then replaced by assay buffer (30 μl/well) followed by addition of test compounds or controls. The cells were incubated with compounds for 30 minutes and the plate was then mounted on FlexStation (Molecular Devices) for fluorescence read out with excitation and emission wavelengths at 488 and 525 nm, respectively. Each well was read for 90 sec at 2 sec interval and the stimulus buffer was added after 20 seconds of baseline recording. The final DMSO concentration was either 0.5 or 1% in the assay plate. Positive and negative controls were defined by addition of DMSO or 3 μM of a standard ROMK inhibitor, respectively, to the wells instead of a test compound.
# A 10-point concentration response curve was used to estimate the IC50 value of test compounds.
# Sequence of hROMK (human Kir1.1) (P48048 whole entry): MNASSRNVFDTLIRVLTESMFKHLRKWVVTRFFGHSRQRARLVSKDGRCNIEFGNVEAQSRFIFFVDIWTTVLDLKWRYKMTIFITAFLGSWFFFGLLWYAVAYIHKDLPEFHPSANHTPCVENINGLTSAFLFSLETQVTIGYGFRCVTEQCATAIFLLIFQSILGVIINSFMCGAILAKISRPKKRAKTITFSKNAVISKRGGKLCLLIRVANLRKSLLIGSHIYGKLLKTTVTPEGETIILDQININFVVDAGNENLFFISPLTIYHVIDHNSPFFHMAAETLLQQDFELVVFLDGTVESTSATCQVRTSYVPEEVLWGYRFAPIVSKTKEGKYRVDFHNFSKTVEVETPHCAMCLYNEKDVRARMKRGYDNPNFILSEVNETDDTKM
row,Compound,IC50
1,"Cc1c([C@@H]2CN(Cc3cnn(-c4cccc(C#N)c4)c3)CCO2)ccc2c1COC2=O [Example 43-I, (R)-3-(4-((2-(4-methyl-1-oxo-1,3-dihydroiso-benzofuran-5-yl)morpho-lino)methyl)-1H-pyrazol-1-yl)benzonitrile]",110 nM
2,"Cc1c([C@@H]2CN(Cc3cnn(-c4ccncc4)c3)CCO2)ccc2c1COC2=O [Example 44-I, (R)-4-methyl-5-(4-((1-(pyridin-4-yl)-1H-pyrazol-4-yl)methyl)morpholin-2-yl)isobenzo-furan-1(3H)-one]",200 nM
3,"Cc1c([C@@H]2CN(Cc3cnn(-c4ccc(S(C)(=O)=O)cc4)c3)CCO2)ccc2c1COC2=O [Example 45-I, (R)-4-methyl-5-(4-((1-(4-(methylsulfonyl)phenyl)-1H-pyrazol-4-yl)methyl)morpholin-2-yl)isobenzofuran-1(3H)-one]",370 nM
4,"Cc1c([C@@H]2CN(Cc3cnn(-c4ccn5nccc5n4)c3)CCO2)ccc2c1COC2=O [Example 50-I, (R)-4-methyl-5-(4-((1-(pyrazolo[1,5-a]pyrimidin-5-yl)-1H-pyrazol-4-yl)methyl)morpholin-2-yl)isobenzofuran-1(3H)-one]",670 nM
5,"Cc1cc(-n2ccc(CN3CCO[C@H](c4ccc5c(c4C)COC5=O)C3)n2)ncc1C#N [Example 53-I, (R)-4-methyl-6-(3-((2-(4-methyl-1-oxo-1,3-dihydroisobenzofuran-5-yl)morpholino)methyl)-1H-pyrazol-1-yl) nicotinonitrile]",370 nM
6,"COc1c(CN2CCN[C@H](c3ccc4c(c3C)COC4=O)C2)cnn1-c1ccc2oc(=O)n(C)c2c1 [Example 54-I, (R)-5-(5-methoxy-4-((3-(4-methyl-1-oxo-1,3-dihydroisobenzofuran-5-yl)piperazin-1-yl)methyl)-1H-pyrazol-1-yl)-3-methylbenzo[d] oxazol-2(3H)-one]",110 nM
7,"Cc1c([C@@H]2CN(Cc3cnn(-c4cc(F)c5oc(=O)n(C)c5c4)c3)CCN2)ccc2c1COC2=O [Example 55-I, (R)-7-fluoro-3-methyl-5-(4-((3-(4-methyl-1-oxo-1,3-dihydroisobenzo-furan-5-yl)piperazin-1-yl)methyl)-1H-pyra-zol-1-yl)benzo[d]oxazol-2(3H)-one]",86 nM
8,"COc1cc(-n2cc(CN3CCN[C@H](c4ccc5c(c4C)COC5=O)C3)cn2)cc2c1oc(=O)n2C [Example 56-I, (R)-7-methoxy-3-methyl-5-(4-((3-(4-methyl-1-oxo-1,3-dihydroiso-benzofuran-5-yl)piperazin-1-yl)methyl)-1H-pyrazol-1-yl)benzo[d] oxazol-2(3H)-one]",150 nM
9,"Cc1c([C@@H]2CN(Cc3cnn(-c4ccc5oc(=O)n(C)c5c4)c3)CCN2)ccc2c1COC2=O [Example 58-I, (R)-3-methyl-5-(4-((3-(4-methyl-1-oxo-1,3-dihydroisobenzofuran-5-yl)piperazin-1-yl)methyl)-1H-pyrazol-1-yl) benzo[d]oxazol-2(3H)-one]",60 nM
10,"Cc1c([C@@H]2CN(Cc3nnc(-c4ccc(C#N)cn4)o3)CCN2)ccc2c1COC2=O [Example 62-I, (R)-6-(5-((3-(4-methyl-1-oxo-1,3-dihydroiso-benzofuran-5-yl)piper-azin-1-yl)methyl)-1,3,4-oxadiazol-2-yl) nicotinonitrile]",170 nM
11,"CC(=O)N1CCN(Cc2cnn(-c3cc(C)c(C#N)cn3)c2)C[C@H]1c1ccc2c(c1C)COC2=O [Example 68-I, (R)-6-(4-((4-acetyl-3-(4-methyl-1-oxo-1,3-di-hydroisobenzofuran-5-yl)piperazin-1-yl)methyl)-1H-pyrazol-1-yl)-4-methylnicotinonitrile]",1700 nM
12,"Cc1cc(-n2cc(CN3CCN(S(C)(=O)=O)[C@H](c4ccc5c(c4C)COC5=O)C3)cn2)ncc1C#N [Example 69-I, (R)-4-methyl-6-(4-((3-(4-methyl-1-oxo-1,3-dihydroisobenzofuran-5-yl)-4-(methylsulfonyl)piperazin-1-yl)methyl)-1H-pyrazol-1-yl) nicotinonitrile]",900 nM
13,"Cc1c([C@@H]2CN(Cc3cnn(-c4ccc5oc(=O)n(C)c5c4)c3)CC(=O)N2)ccc2c1COC2=O [Example 71-I, (R)-3-methyl-5-(4-((3-(4-methyl-1-oxo-1,3-dihydroisobenzofuran-5-yl)-5-oxopiperazin-1-yl)methyl)-1H-pyrazol-1-yl)benzo[d]oxazol-2(3H)-one]",800 nM
14,"Cc1c([C@@H]2CN(Cc3cn(-c4ccc5oc(=O)n(C)c5c4)nn3)CC(=O)N2)ccc2c1COC2=O [Example 72-I, (R)-3-methyl-5-(4-((3-(4-methyl-1-oxo-1,3-dihydroisobenzofuran-5-yl)-5-oxopiperazin-1-yl)methyl)-1H-1,2,3-triazol-1-yl)benzo[d] oxazol-2(3H)-one]",550 nM
15,"Cc1c([C@@H]2CN(Cc3ccc(-n4cnc(C#N)n4)nc3)CC(=O)N2)ccc2c1COC2=O [Example 73-I, (R)-1-(5-((3-(4-methyl-1-oxo-1,3-dihydroiso-benzofuran-5-yl)-5-oxo-piperazin-1-yl)methyl)pyridin-2-yl)-1H-1,2,4-triazole-3-carbonitrile]",150 nM
16,"COc1cc(-c2ccc(CN3CC(=O)N[C@H](c4ccc5c(c4C)COC5=O)C3)cn2)ncc1C#N [Example 74-I, (R)-4-methoxy-5′-((3-(4-methyl-1-oxo-1,3-di-hydroisobenzofuran-5-yl)-5-oxopiperazin-1-yl)methyl)-[2,2′-bi-pyridine]-5-carbonitrile]",570 nM
17,"Cc1ncn(-c2ccc(CN3CC(=O)N[C@H](c4ccc5c(c4C)COC5=O)C3)cn2)n1 [Example 75-I, (R)-6-(4-methyl-1-oxo-1,3-dihydroisobenzo-furan-5-yl)-4-((6-(3-methyl-1H-1,2,4-triazol-1-yl)pyridin-3-yl)methyl) piperazin-2-one]",680 nM
18,"Cc1cn(-c2ccc(CN3CC(=O)N[C@H](c4ccc5c(c4C)COC5=O)C3)cn2)cn1 [Example 76-I, (R)-6-(4-methyl-1-oxo-1,3-dihydroisobenzo-furan-5-yl)-4-((6-(4-methyl-1H-imidazol-1-yl)pyridin-3-yl)methyl) piperazin-2-one]",300 nM
19,"Cc1cc(-n2cc(CN3CC(=O)N(C)[C@H](c4ccc5c(c4C)COC5=O)C3)cn2)ncc1C#N [Example 77-I, (R)-4-methyl-6-(4-((4-methyl-3-(4-methyl-1-oxo-1,3-dihydroisobenzo-furan-5-yl)-5-oxo-piperazin-1-yl)methyl)-1H-pyrazol-1-yl)nicotino-nitrile]",820 nM
20,"COc1cc(-n2cnc(CN3C[C@@H](c4ccc5c(c4C)COC5=O)OC3=O)c2)ncc1C#N [Example 78-I, (R)-4-methoxy-6-(4-((5-(4-methyl-1-oxo-1,3-dihydroisobenzofuran-5-yl)-2-oxooxazolidin-3-yl)methyl)-1H-imidazol-1-yl)nicotinonitrile]",810 nM
21,"COc1c(CN2C[C@@H](c3ccc4c(c3C)COC4=O)OC2=O)cnn1-c1cc(C)c(C#N)cn1 [Example 79-I, (R)-6-(5-methoxy-4-((5-(4-methyl-1-oxo-1,3-dihydroisobenzofuran-5-yl)-2-oxooxazolidin-3-yl)methyl)-1H-pyrazol-1-yl)-4-methyl-nicotinonitrile]",320 nM
22,"Cc1c([C@@H]2CN(Cc3cnn(-c4ccc5oc(=O)n(C)c5c4)c3)C(=O)O2)ccc2c1COC2=O [Example 80-I, (R)-3-methyl-5-(4-((5-(4-methyl-1-oxo-1,3-dihydroisobenzofuran-5-yl)-2-oxooxazolidin-3-yl)methyl)-1H-pyrazol-1-yl)benzo[d]oxazol-2(3H)-one]",490 nM
23,"Cc1cc(-c2ncc(CN3C[C@@H](c4ccc5c(c4C)COC5=O)N[C@@H](C)C3)s2)ncc1C#N [Example 113-I, 4,4-methyl-6-(5-(((3S,5R)-3-methyl-5-(4-methyl-1-oxo-1,3-dihydroisobenzofuran-5-yl)piperazin-1-yl)methyl)thiazol-2-yl)nicotinonitrile]",25 nM
24,"Cc1cc(-n2cc(CN3C[C@@H](c4ccc5c(c4C)COC5=O)N[C@@H](C)C3)oc2=O)ncc1C#N [Example 117-I, 4-methyl-6-(5-(((3S,5R)-3-methyl-5-(4-methyl-1-oxo-1,3-dihydroisobenzofuran-5-yl)piperazin-1-yl)methyl)-2-oxooxazol-3(2H)-yl)nicotinonitrile]",34 nM
25,"Cc1cc(-n2cc(CN3C[C@@H](c4ccc5c(c4C)COC5=O)NC3=O)cn2)ncc1C#N [Example 118-I, (R)-4-methyl-6-(4-((4-(4-methyl-1-oxo-1,3-dihydroisobenzofuran-5-yl)-2-oxoimidazolidin-1-yl)methyl)-1H-pyrazol-1-yl)nicotinonitrile]",290 nM
26,"Cc1cc(-n2cc(CN3C[C@@H](c4ccc5c(c4C)COC5=O)NS3(=O)=O)cn2)ncc1C#N [Example 119-I, (R)-4-methyl-6-(4-((4-(4-methyl-1-oxo-1,3-dihydroisobenzofuran-5-yl)-1,1-dioxido-1,2,5-thiadiazolidin-2-yl)methyl)-1H-pyrazol-1-yl)nicotinonitrile]",140 nM
27,"Cc1c([C@@H]2CN(Cc3ccc(-c4ccc(=O)n(C)n4)nc3)C[C@H](C)N2)ccc2c1COC2=O [Example 120-I, 2-methyl-6-(5-(((3S,5R)-3-methyl-5-(4-methyl-1-oxo-1,3-dihydroisobenzofuran-5-yl)piperazin-1-yl)methyl)pyridin-2-yl)pyridazin-3(2H)-one]",160 nM
28,"Cc1cc(-c2nc(CN3CC[C@@H](O)[C@H](c4ccc5c(c4C)COC5=O)C3)co2)ncc1C#N [Example 132-I, 6-(4-(((3R,4R)-4-hydroxy-3-(4-methyl-1-oxo-1,3-dihydroisobenzofuran-5-yl)piperidin-1-y)methyl)oxazol-2-yl)-4-methylnicotinonitrile]",170 nM
29,"Cc1c([C@@H]2CN(Cc3cnn(-c4ccc5oc(=O)n(C)c5c4C)c3)CCN2)ccc2c1COC2=O [Example 135-I, (R)-3,4-dimethyl-5-(4-((3-(4-methyl-1-oxo-1,3-dihydroisobenzofuran-5-yl)piperazin-1-yl)methyl)-1H-pyrazol-1-yl)benzo[d]oxazol-2(3H)-one]",170 nM
